Our source for the MIC values is ChEMBL document CHEMBL3739292, “Synthesis and Biological Evaluation of Polar Functionalities Containing Nitrodihydroimidazooxazoles as Anti-TB Agents” (ACS Med Chem Lett, 2015).

Assay [1] relates to Mycobacterium tuberculosis. Kind of assay: Antimicrobial activity against rifamycin-resistant Mycobacterium tuberculosis by resazurin microtiter assay. The assay is classed as functional. In general terms: The colour change of resazurin is a common sign of viable cells or microbes.
Assay [2] concerns Mycobacterium tuberculosis. Kind of assay: Antimicrobial activity against multidrug-resistant Mycobacterium tuberculosis by resazurin microtiter assay. The format is functional.

Converted amounts (≈) assume the structure as drawn.

For the compound `C[C@]1(COc2ccc(-n3cc(COc4ccc(OC(F)(F)F)cc4)nn3)cc2)Cn2cc([N+](=O)[O-])nc2O1`, the MIC came out at 0.06 µg/mL (≈ 0.113 µM) in assay [1] and 0.12 µg/mL (≈ 0.225 µM) in assay [2].
Regarding `C[C@]1(COc2ccc(N3CCN(S(=O)(=O)c4ccc(F)cc4)CC3)cc2)Cn2cc([N+](=O)[O-])nc2O1`, the minimum inhibitory concentration (MIC) was 1 µg/mL (≈ 1.93 µM) in assay [1] and greater than 8 µg/mL in assay [2].
For `C[C@]1(COc2ccc(S(=O)(=O)N3CCOCC3)cc2)Cn2cc([N+](=O)[O-])nc2O1` the same measures were 1 µg/mL (≈ 2.36 µM) and 2 µg/mL (≈ 4.71 µM).
In the case of `COc1c(N2CCNC(C)C2)c(F)cc2c(=O)c(C(=O)O)cn(C3CC3)c12` (centres undefined) [GATIFLOXACIN], in assay [2], inhibition of growth (MIC) required 0.5 µg/mL (≈ 1.33 µM).
For the compound `COc1ccc(NC(=S)Nc2ccc(OC[C@@]3(C)Cn4cc([N+](=O)[O-])nc4O3)cc2)cc1`, the MIC in assay [1] is 2 µg/mL (≈ 4.39 µM); in assay [2] it was greater than 8 µg/mL.
For `C[C@]1(COc2ccc(S(=O)(=O)N3CCCCC3)cc2)Cn2cc([N+](=O)[O-])nc2O1` the same measures were 3.34 µg/mL (≈ 7.91 µM) and greater than 8 µg/mL.
For `C[C@]1(COc2ccc(N3CCC(Oc4ccc(OC(F)(F)F)cc4)CC3)cc2)Cn2cc([N+](=O)[O-])nc2O1`, the figures for the minimal inhibitory concentration (MIC) in assay [1] and in assay [2] were 0.005 µg/mL (≈ 0.00935 µM) and 0.02 µg/mL (≈ 0.0374 µM), respectively.
In the case of `CCOc1ccc(NC(=O)Nc2ccc(OC[C@@]3(C)Cn4cc([N+](=O)[O-])nc4O3)cc2)cc1`, the MIC in assay [1] is 1 µg/mL (≈ 2.21 µM); in assay [2], greater than 8 µg/mL.
The matching figures for `C[C@]1(COc2ccc(NC(=O)Nc3ccc(Cl)cc3)cc2)Cn2cc([N+](=O)[O-])nc2O1`: 0.67 µg/mL (≈ 1.51 µM) and greater than 8 µg/mL.
For `CO[C@H]1/C=C/O[C@@]2(C)Oc3c(C)c(O)c4c(O)c(c(/C=N/N5CCN(C)CC5)c(O)c4c3C2=O)NC(=O)/C(C)=C\C=C\[C@H](C)[C@H](O)[C@@H](C)[C@@H](O)[C@@H](C)[C@H](OC(C)=O)[C@@H]1C` [RIFAMPIN] the same measures were 256 µg/mL (≈ 311 µM) and 128 µg/mL (≈ 156 µM).

The MIC is the lowest concentration found to suppress growth.
